Like-named read-outs stand apart in the source and are kept apart here.
Columns and labels:
[1] = system: HIV1 strain NL4-3; format: cell-based; details: normalized mean of HIV1 replication readout
[2] = system: HCV replicon; format: cell-based; details: normalized mean of HCV replicon readout
[3] = system: F. novicida (strain U112); format: cell-based
[4] = system: influenza A H1N1 virus; details: 48 hr post-treatment, A549
[5] = system: EBV; details: normalized mean of EBV replication readout

| Substance | HIV1 Norm MEAN ([1]; peptide screen) | HCV Norm MEAN ([2]; peptide screen) | Francisella novicida Norm AUC [3] | Neuraminidase activity normalized to vehicle ([4]; 200 µM peptide) | Neuraminidase activity normalized to vehicle ([4]; 0,823 µM peptide) | Neuraminidase activity normalized to vehicle ([4]; 22,2 µM peptide) | Neuraminidase activity normalized to vehicle ([4]; 2,4691 µM peptide) | Neuraminidase activity normalized to vehicle ([4]; 7,4074 µM peptide) | Neuraminidase activity normalized to vehicle ([4]; 66,6667 µM peptide) | EBV Norm MEAN ([5]; peptide screen) | HIV1 Norm MEAN [1] | HCV Norm MEAN [2] | EBV Norm MEAN [5] |
| --- | --- | --- | --- | --- | --- | --- | --- | --- | --- | --- | --- | --- | --- |
| SAPCLLKLSTTLLCLEI [CPEP124] | 14.9843 | 1.253 | 0.6911 | 0,1059 | 1,0611 | 0,6181 | 0,9657 | 1,0354 | 0,1507 | 0.5543 |  |  |  |
| PVHAGPIAP [CPEP87] |  |  | 1.084 | 0,6355 | 1,0155 | 0,8043 | 0,8845 | 0,906 | 0,7025 |  | 0.4 | 0.2137 | 0.6567 |
| MNNQRKKAKNTPFNM [CPEP62] | 0.3968 | 0.5393 | 0.8631 | 1,2311 | 1,1108 | 0,891 | 1,0767 | 0,9136 | 1,1387 | 1.218 |  |  |  |
| CPEP127: peptide of the viral peptide library; sequence page not shown (LVKPTVYVYSR) |  |  | 0.4703 | 0,2557 | 0,9001 | 0,8705 | 1,007 | 0,8577 | 0,9535 |  | 1.624 | 0.6257 | 0.673 |
| IHTHARFLIT [CPEP139] |  |  | 1.233 | 0,8832 | 1,1262 | 0,9135 | 1,0704 | 1,0144 | 0,8125 |  | 2.216 | 0.5677 | 1.5606 |
| GRPPLPPKQK [CPEP41] |  |  | 0.9976 | 0,8561 | 1,0727 | 0,912 | 0,9209 | 0,9892 | 0,8347 |  | 0.6258 | 0.9259 | 0.7591 |
| PKKKRKV [CPEP56] |  |  | 1.16 | 0,9628 | 1,0162 | 0,9231 | 0,8416 | 0,8936 | 0,9527 |  | 0.9705 | 0.1426 | 0.9787 |
| NKVGSLQYLALAALI [CPEP60] | 4.7165 | 1.268 | 1.045 | 0,117 | 0,8991 | 0,7636 | 1,0157 | 0,7801 | 0,247 | 0.706 |  |  |  |
| SKMQL [CPEP150] |  |  | 0.5976 | 1,0149 | 0,912 | 0,9305 | 0,7746 | 0,8703 | 0,9907 |  | 1.8032 | 0.2118 | 1.198 |

— paper PMC10835127, “Viruses traverse the human proteome through peptide interfaces that can be biomimetically leveraged for drug discovery” (Proceedings of the National Academy of Sciences of the …, 2024)
